Several values for one entry are separate records, joined by “and”; a condition that tells them apart may be missing. Equal values may be shown once.

Type in all cases: cell-based
In assay [1] the test system is normal human epidermal keratinocytes (NHEKs). The assay is described as follows: Neosynthesis of total GAGs by NHEKs, [3H]-glucosamine incorporation. To be noted: for effect on the neosynthesis of the total GAGs by the NHEKs (in words): tested at 10 and 100 μM; for % Control / Mean (cpm) / [3H]-glucosamine (cpm): total GAGs, NHEKs; for [3H]-glucosamine (cpm): single replicates. How it is done: (§1) The effects of the compounds on the neosynthesis of total and sulfated glycosaminoglycans (GAGs) were studied on two cell models, normal human epidermal keratinocytes (NHEKs) and normal human dermal fibroblasts (NHDFs). The effects of these compounds were evaluated by measuring: • the incorporation of [3H]-glucosamine into the total GAGs neosynthesized by NHEKs and by NHDFs, • the incorporation of [35S]-sulfate into the sulfated GAGs neosynthesized by NHEKs and by NHDFs.
(§2) The keratinocytes were seeded into wells and cultured in culture medium for 24 hours. The medium was then replaced with culture medium containing or not containing (control) the compounds to be tested or the reference (4-nitrophenyl β-D-xylopyranoside at 300 μM), then the cells were incubated for 72 hours with the addition of the [3H]-glucosamine radioactive label (total GAGs) or of the [35S]-sulfate radioactive label (sulfated GAGs) for the final 24 hours of incubation.
(§3) At the end of the incubation, the glycosaminoglycans were extracted from the cells with a chaotropic buffer. The GAGs were then purified by ion exchange chromatography: adsorption of the anionic molecules on Q-Sepharose beads and desorption of the molecules of low or medium anionic nature, with a suitable solution.
(§4) The radioactivity incorporated into the molecules left on the support (GAGs, predominantly) was measured by liquid scintillation.
(§5) All the experimental conditions were performed in n=3.
(§6) The inter-group comparisons were performed using Student's non-paired two-sided t-test. The statistical analyses can be interpreted if n≥5; however, for n<5, the data calculated are provided only by way of indication.

Assay [2] has the same test system. The assay is described as follows: Neosynthesis of sulfated GAGs by NHEKs, [35S]-sulfate incorporation. To be noted: for % Control / Mean (cpm) / [35S]-Sulfate (cpm): sulfated GAGs, NHEKs; for [35S]-Sulfate (cpm): single replicates; for effect on the neosynthesis of the sulfated GAGs by the NHEKs (in words): tested at 10 and 100 μM. How it is done:
as §1, §2, §3, §4, §5, §6

Assay [3] relates to normal human dermal fibroblasts (NHDFs). Description: Neosynthesis of total GAGs by NHDFs, [3H]-glucosamine incorporation. The note with it: for effect on the neosynthesis of the total GAGs by the NHDFs (in words): tested at 10 and 100 μM; for % Control / Mean (cpm) / [3H]-glucosamine (cpm): total GAGs, NHDFs; for [3H]-glucosamine (cpm): single replicates. How it is done:
as §1
(§7) The fibroblasts were seeded into wells and cultured in culture medium for 24 hours. The medium was then replaced with culture medium containing or not containing (controt) the compounds to be tested or the reference (TGF-β at 10 ng/ml), then the cells were incubated for 72 hours with the addition of the [35S]-sulfate radioactive label (sulfated GAGs) or of the [3H]-glucosamine radioactive label (total GAGs) for the final 24 hours of incubation.
as §3, §4, §5, §6

Assay [4] shares this test system. The assay is described as follows: Neosynthesis of sulfated GAGs by NHDFs, [35S]-sulfate incorporation. The note with it: for % Control / Mean (cpm) / [35S]-Sulfate (cpm): sulfated GAGs, NHDFs; for [35S]-Sulfate (cpm): single replicates; for effect on the neosynthesis of the sulfated GAGs by the NHDFs (in words): tested at 10 and 100 μM. How it is done:
as §1, §7, §3, §4, §5, §6

Regarding `OC[C@H]1O[C@@H](Oc2cc(O)cc(/C=C/c3ccc(O)cc3)c2)[C@H](O)[C@@H](O)[C@@H]1O` [Polydatin], the “effect on the neosynthesis of the total GAGs by the NHEKs (in words)” value in assay [1] is on record as “did not modulate”. Also, the “% Control” value in assay [1] (campaign 1, 10 μM) is reported as 102%; in assay [1] (campaign 1, 100 μM) it was 90%; in assay [2] (campaign 1, 10 μM) it was 100%; in assay [2] (campaign 1, 100 μM) it was 119%; in assay [4] (campaign 1, 10 μM) it was 96%; in assay [4] (campaign 1, 100 μM), 78%. Besides, the “Mean (cpm)” value in assay [1] (campaign 1, 10 μM) was determined as 13202 cpm; in assay [1] (campaign 1, 100 μM), 11660 cpm; in assay [2] (campaign 1, 10 μM) it was 6760 cpm; in assay [2] (campaign 1, 100 μM) it was 8043 cpm; in assay [4] (campaign 1, 10 μM) it was 1573 cpm; in assay [4] (campaign 1, 100 μM), 1287 cpm. The “[3H]-glucosamine (cpm)” value was 13405 cpm and 13192 cpm and 13010 cpm in assay [1] (campaign 1, 10 μM); 12222 cpm and 11510 cpm and 11248 cpm in assay [1] (campaign 1, 100 μM). Also, the “[35S]-Sulfate (cpm)” value was 6316 cpm and 6800 cpm and 7164 cpm in assay [2] (campaign 1, 10 μM); 7007 cpm and 8365 cpm and 8756 cpm in assay [2] (campaign 1, 100 μM); 1523 cpm and 1479 cpm and 1718 cpm in assay [4] (campaign 1, 10 μM); 1290 cpm and 1317 cpm and 1255 cpm in assay [4] (campaign 1, 100 μM). Further, the “effect on the neosynthesis of the sulfated GAGs by the NHEKs (in words)” value in assay [2] is “did not modulate”. Further, the “effect on the neosynthesis of the total GAGs by the NHDFs (in words)” value in assay [3] is “overall inhibited”. Also, the “effect on the neosynthesis of the sulfated GAGs by the NHDFs (in words)” value in assay [4] was “overall inhibited”.
For `Oc1ccc(C=Cc2cc(O)cc(O)c2)cc1` [Resveratrol], in assay [1], the “effect on the neosynthesis of the total GAGs by the NHEKs (in words)” value is “inhibited, in a concentration-dependent manner”. For the same compound, the “% Control” value in assay [1] (campaign 1, 10 μM) amounted to 64%; in assay [1] (campaign 1, 100 μM) it was 13%; in assay [1] (campaign 2, 1 μM) it was 113%; in assay [1] (campaign 2, 10 μM), 86%; in assay [2] (campaign 1, 10 μM), 77%; in assay [2] (campaign 1, 100 μM), 27%. In addition, the “% Control” value in assay [2] (campaign 2, 10 μM) was 94%; in assay [3] (campaign 2, 10 μM) it was 98%; in assay [3] (campaign 2, 100 μM), 86%; in assay [4] (campaign 1, 10 μM), 93%; in assay [4] (campaign 1, 100 μM), 62%; in assay [4] (campaign 2, 10 μM), 101%. For the same compound, the “% Control” value in assay [4] (campaign 2, 100 μM) is on record as 54%. Also, the “Mean (cpm)” value in assay [1] (campaign 1, 10 μM) was determined as 8328 cpm; in assay [1] (campaign 1, 100 μM), 1743 cpm; in assay [1] (campaign 2, 1 μM), 9628 cpm; in assay [1] (campaign 2, 10 μM) it was 7347 cpm; in assay [2] (campaign 1, 10 μM) it was 5254 cpm; in assay [2] (campaign 1, 100 μM), 1802 cpm. The “Mean (cpm)” value in assay [2] (campaign 2, 1 μM) worked out at 6530 cpm; in assay [2] (campaign 2, 10 μM) it was 4973 cpm; in assay [3] (campaign 2, 10 μM) it was 1534 cpm; in assay [3] (campaign 2, 100 μM), 1339 cpm; in assay [4] (campaign 1, 10 μM) it was 1527 cpm; in assay [4] (campaign 1, 100 μM), 1019 cpm. For the same compound, the “Mean (cpm)” value in assay [4] (campaign 2, 10 μM) turned out to be 571 cpm; in assay [4] (campaign 2, 100 μM), 305 cpm. The “[3H]-glucosamine (cpm)” value in assay [1] (campaign 1, 10 μM) was 7566 cpm and 8537 cpm and 8880 cpm; in assay [1] (campaign 1, 100 μM), 1509 cpm and 1754 cpm and 1967 cpm; in assay [1] (campaign 2, 1 μM), 10734 cpm and 10012 cpm and 8137 cpm; in assay [1] (campaign 2, 10 μM) it was 6772 cpm and 7143 cpm and 8126 cpm; in assay [3] (campaign 2, 10 μM), 1439 cpm and 1533 cpm and 1630 cpm; in assay [3] (campaign 2, 100 μM), 1253 cpm and 1360 cpm and 1404 cpm. In addition, the “[35S]-Sulfate (cpm)” value in assay [2] (campaign 1, 10 μM) was 5238 cpm and 5506 cpm and 5018 cpm; in assay [2] (campaign 1, 100 μM), 1836 cpm and 1725 cpm and 1845 cpm; in assay [2] (campaign 2, 1 μM) it was 6885 cpm and 6817 cpm and 5888 cpm; in assay [2] (campaign 2, 10 μM) it was 5137 cpm and 4981 cpm and 4802 cpm; in assay [4] (campaign 1, 10 μM), 1506 cpm and 1556 cpm and 1519 cpm; in assay [4] (campaign 1, 100 μM), 967 cpm and 1045 cpm and 1046 cpm. The “[35S]-Sulfate (cpm)” value is 613 cpm and 513 cpm and 586 cpm in assay [4] (campaign 2, 10 μM); 355 cpm and 283 cpm and 276 cpm in assay [4] (campaign 2, 100 μM). In addition, the “effect on the neosynthesis of the sulfated GAGs by the NHEKs (in words)” value in assay [2] is “inhibited, in a concentration-dependent manner”. The “effect on the neosynthesis of the total GAGs by the NHDFs (in words)” value in assay [3] was “overall inhibited”. The “effect on the neosynthesis of the sulfated GAGs by the NHDFs (in words)” value in assay [4] is recorded as “overall inhibited”.
With `O=[N+]([O-])c1ccc(O[C@@H]2OC[C@@H](O)[C@H](O)[C@H]2O)cc1` [4-Nitrophenyl β-D-xylopyranoside, 4-nitrophenyl β-D-xylopyranoside], the “% Control” value worked out at 206% in assay [1] (campaign 1, 300 μM); 243% in assay [1] (campaign 2, 300 μM); 922% in assay [2] (campaign 1, 300 μM); 1029% in assay [2] (campaign 2, 300 μM). The “Mean (cpm)” value in assay [1] (campaign 1, 300 μM) is listed as 26611 cpm; in assay [1] (campaign 2, 300 μM) it was 20694 cpm; in assay [2] (campaign 1, 300 μM) it was 62566 cpm; in assay [2] (campaign 2, 300 μM), 54615 cpm. Further, the “[3H]-glucosamine (cpm)” value was 26835 cpm and 26438 cpm and 26560 cpm in assay [1] (campaign 1, 300 μM); 22239 cpm and 20953 cpm and 18891 cpm in assay [1] (campaign 2, 300 μM). Moreover, the “[35S]-Sulfate (cpm)” value was 60267 cpm and 63396 cpm and 64036 cpm in assay [2] (campaign 1, 300 μM); 54440 cpm and 52841 cpm and 56564 cpm in assay [2] (campaign 2, 300 μM, listed as 4-Nitrophenyl B-D-xylopyranoside).
“TGF-β: reference for the fibroblast assays, at 10 ng/ml”: in assay [3] (campaign 2, 10 ng/ml), the “% Control” value was determined as 331%; the “Mean (cpm)” value is 5167 cpm; the “[3H]-glucosamine (cpm)” value is 5999 cpm and 4173 cpm and 5328 cpm. In assay [4] (campaign 1, 10 ng/ml), the “% Control” value stood at 208%; the “Mean (cpm)” value was 3433 cpm; the “[35S]-Sulfate (cpm)” value was 3397 cpm and 3492 cpm and 3411 cpm. In assay [4] (campaign 2, 10 ng/ml), the “% Control” value was 257%; the “Mean (cpm)” value is on record as 1452 cpm; the “[35S]-Sulfate (cpm)” value was 1471 cpm and 1482 cpm and 1403 cpm.

The record behind these values is patent US11654096B2 (L'OREAL, priority 2017, dated 2023).
